Assay results as given in US20250129121A1, “POLYPEPTIDE, PRODUCT INCLUDING POLYPEPTIDE FOR INHIBITING FUSOBACTERIUM NUCLEATUM, OR DRUG FOR PREVENTING COLORECTAL CANCER” (priority 2022, published 2025).
In brackets after ≈: the same amount, converted by molar mass. Where a SMILES comes first, the peptide text is derived from it.

How the values were obtained:
F. nucleatum 10953 = format: cell-based, Fusobacterium nucleatum; settings: 10953, 20 h
Experimental: (§1) A. Each polypeptide was prepared into a specified stock solution for later use. Minimum inhibitory concentrations (MICs) of the polypeptides P1 to P12 were determined by a broth microdilution method. With 0.01% acetic acid (including 0.2% of bovine serum albumin (BSA)) as a diluent, a series of gradient antimicrobial peptide solutions were prepared by a two-fold dilution method.
(§2) B. 100 μL of each polypeptide stock solution was taken and added to a 96-well cell culture plate, and then each strain solution to be tested (about 10^5/mL) was added in an equal volume to each well. A positive control (including a strain solution, but not including a polypeptide) and a negative control (including neither a strain solution nor a polypeptide). Strains to be tested include Escherichia coli Nissile 1917, Vibrio cholerae H1, Pseudomonas aeruginosa PAO1, F. nucleatum 25586, F. nucleatum 10953, Bifidobacterium uniformis 6597, Lactobacillus acidophilus 6075, Bifidobacterium longum 6194Lactobacillus rhamnosus 6141, and Streptococcus agalactiae H94.
(§3) C. The cell culture plate was incubated at a constant temperature of 37° C. for 20 h, and MIC was recorded when the turbidity was not observed by naked eyes at a bottom of a well. The strains all were purchased from the market.

F. nucleatum 25586 = format: cell-based, Fusobacterium nucleatum; settings: 25586, 20 h
Experimental: as §1, §2, §3

[1] = tested on: Lactobacillus rhamnosus 6141; format: cell-based; settings: 20 h
Experimental: as §1, §2, §3

[2] = tested on: Pseudomonas aeruginosa PAO1; format: cell-based; settings: PAO1, 20 h
Experimental: as §1, §2, §3

[3] = tested on: Bifidobacterium uniformis 6597; format: cell-based; settings: 20 h
Experimental: as §1, §2, §3

[4] = tested on: Escherichia coli Nissile 1917; format: cell-based; settings: Nissile 1917, 20 h
Experimental: as §1, §2, §3

[5] = tested on: Lactobacillus acidophilus 6075; format: cell-based; settings: 20 h
Experimental: as §1, §2, §3

[6] = tested on: Streptococcus agalactiae H94; format: cell-based; settings: H94, 20 h
Experimental: as §1, §2, §3

[7] = tested on: Bifidobacterium longum 6194; format: cell-based; settings: 20 h
Experimental: as §1, §2, §3

SMILES	MIC Fusobacterium nucleatum 10953 (F. nucleatum 10953) [µM]	MIC Fusobacterium nucleatum 25586 (F. nucleatum 25586) [µM]	MIC Lactobacterium rhamnosus 6141 [1] [µM]	MIC Pseudomonas aeruginosa PAO1 [2] [µM]	MIC Bifidobacteriu muniformis 6597 [3] [µM]	MIC Escherichia coli nissile1917 [4] [µM]	MIC Lactobacillus acidophilus 6075 [5] [µM]	MIC Streptococcus agalactiae H94 [6] [µM]	MIC Bifidobacterium longum 6194 [7] [µM]
N=C(N)NCCC[C@H](NC(=O)CNC(=O)[C@@H]1CCCN1C(=O)[C@H](CCCNC(=N)N)NC(=O)[C@H](Cc1c[nH]c2ccccc12)NC(=O)[C@H](CCC(=O)O)NC(=O)[C@@H](N)Cc1c[nH]c2ccccc12)C(=O)N[C@@H](Cc1c[nH]c2ccccc12)C(=O)N[C@@H](CCC(=O)O)C(=O)N[C@@H](Cc1c[nH]c2ccccc12)C(=O)O [P1, WEWRPGRWEW] (H-WEWRPGRWEW-OH; N-terminus assumed)	>64	>64	>64	>64	>64	>64	>64	>64	>64
N=C(N)NCCC[C@H](NC(=O)CNC(=O)[C@@H]1CCCN1C(=O)[C@H](CCCNC(=N)N)NC(=O)[C@H](Cc1c[nH]c2ccccc12)NC(=O)[C@H](CCC(=O)O)NC(=O)[C@H](Cc1c[nH]c2ccccc12)NC(=O)[C@H](CCCNC(=N)N)NC(=O)[C@H](Cc1c[nH]c2ccccc12)NC(=O)[C@H](CCC(=O)O)NC(=O)[C@@H](N)Cc1c[nH]c2ccccc12)C(=O)N[C@@H](Cc1c[nH]c2ccccc12)C(=O)N[C@@H](CCC(=O)O)C(=O)N[C@@H](Cc1c[nH]c2ccccc12)C(=O)N[C@@H](CCCNC(=N)N)C(=O)N[C@@H](Cc1c[nH]c2ccccc12)C(=O)N[C@@H](CCC(=O)O)C(=O)N[C@@H](Cc1c[nH]c2ccccc12)C(=O)O [P2, WEWRWEWRPGRWEWRWEW] (H-WEWRWEWRPGRWEWRWEW-OH; N-terminus assumed)	>64	>64	>64	>64	>64	>64	>64	>64	>64
N=C(N)NCCC[C@H](NC(=O)CNC(=O)[C@@H]1CCCN1C(=O)[C@H](CCCNC(=N)N)NC(=O)[C@H](Cc1c[nH]c2ccccc12)NC(=O)[C@H](CCC(=O)O)NC(=O)[C@H](Cc1c[nH]c2ccccc12)NC(=O)[C@H](Cc1c[nH]c2ccccc12)NC(=O)[C@H](CCC(=O)O)NC(=O)[C@H](Cc1c[nH]c2ccccc12)NC(=O)[C@H](CCCNC(=N)N)NC(=O)CNC(=O)[C@@H]1CCCN1C(=O)[C@H](CCCNC(=N)N)NC(=O)[C@H](Cc1c[nH]c2ccccc12)NC(=O)[C@H](CCC(=O)O)NC(=O)[C@@H](N)Cc1c[nH]c2ccccc12)C(=O)N[C@@H](Cc1c[nH]c2ccccc12)C(=O)N[C@@H](CCC(=O)O)C(=O)N[C@@H](Cc1c[nH]c2ccccc12)C(=O)O [P3] (H-WEWRPGRWEWWEWRPGRWEW-OH; N-terminus assumed)	>64	>64	>64	>64	>64	>64	>64	>64	>64
N=C(N)NCCC[C@H](NC(=O)CNC(=O)[C@@H]1CCCN1C(=O)[C@H](CCCNC(=N)N)NC(=O)[C@H](Cc1c[nH]c2ccccc12)NC(=O)[C@H](CC(=O)O)NC(=O)[C@@H](N)Cc1c[nH]c2ccccc12)C(=O)N[C@@H](Cc1c[nH]c2ccccc12)C(=O)N[C@@H](CC(=O)O)C(=O)N[C@@H](Cc1c[nH]c2ccccc12)C(=O)O [P4, WDWRPGRWDW] (H-WDWRPGRWDW-OH; N-terminus assumed)	>64	>64	>64	>64	>64	>64	>64	>64	>64
N=C(N)NCCC[C@H](NC(=O)CNC(=O)[C@@H]1CCCN1C(=O)[C@H](CCCNC(=N)N)NC(=O)[C@H](Cc1c[nH]c2ccccc12)NC(=O)[C@H](CC(=O)O)NC(=O)[C@H](Cc1c[nH]c2ccccc12)NC(=O)[C@H](CCCNC(=N)N)NC(=O)[C@H](Cc1c[nH]c2ccccc12)NC(=O)[C@H](CC(=O)O)NC(=O)[C@@H](N)Cc1c[nH]c2ccccc12)C(=O)N[C@@H](Cc1c[nH]c2ccccc12)C(=O)N[C@@H](CC(=O)O)C(=O)N[C@@H](Cc1c[nH]c2ccccc12)C(=O)N[C@@H](CCCNC(=N)N)C(=O)N[C@@H](Cc1c[nH]c2ccccc12)C(=O)N[C@@H](CC(=O)O)C(=O)N[C@@H](Cc1c[nH]c2ccccc12)C(=O)O [P5, WDWRWDWRPGRWDWRWDW] (H-WDWRWDWRPGRWDWRWDW-OH; N-terminus assumed)	>64	>64	>64	>64	>64	64 (≈ 176 µg/mL)	>64	>64	>64
N=C(N)NCCC[C@H](NC(=O)CNC(=O)[C@@H]1CCCN1C(=O)[C@H](CCCNC(=N)N)NC(=O)[C@H](Cc1c[nH]c2ccccc12)NC(=O)[C@H](CC(=O)O)NC(=O)[C@H](Cc1c[nH]c2ccccc12)NC(=O)[C@H](Cc1c[nH]c2ccccc12)NC(=O)[C@H](CC(=O)O)NC(=O)[C@H](Cc1c[nH]c2ccccc12)NC(=O)[C@H](CCCNC(=N)N)NC(=O)CNC(=O)[C@@H]1CCCN1C(=O)[C@H](CCCNC(=N)N)NC(=O)[C@H](Cc1c[nH]c2ccccc12)NC(=O)[C@H](CC(=O)O)NC(=O)[C@@H](N)Cc1c[nH]c2ccccc12)C(=O)N[C@@H](Cc1c[nH]c2ccccc12)C(=O)N[C@@H](CC(=O)O)C(=O)N[C@@H](Cc1c[nH]c2ccccc12)C(=O)O [P6] (H-WDWRPGRWDWWDWRPGRWDW-OH; N-terminus assumed)	64 (≈ 186 µg/mL)	64 (≈ 186 µg/mL)	>64	>64	>64	64 (≈ 186 µg/mL)	>64	>64	>64
N=C(N)NCCC[C@H](NC(=O)CNC(=O)[C@@H]1CCCN1C(=O)[C@H](CCCNC(=N)N)NC(=O)[C@H](Cc1c[nH]c2ccccc12)NC(=O)[C@H](Cc1c[nH]cn1)NC(=O)[C@@H](N)Cc1c[nH]c2ccccc12)C(=O)N[C@@H](Cc1c[nH]c2ccccc12)C(=O)N[C@@H](Cc1c[nH]cn1)C(=O)N[C@@H](Cc1c[nH]c2ccccc12)C(=O)O [P7, WHWRPGRWHW] (H-WHWRPGRWHW-OH; N-terminus assumed)	8 (≈ 12 µg/mL)	64 (≈ 96.2 µg/mL)	64 (≈ 96.2 µg/mL)	>64	>64	64 (≈ 96.2 µg/mL)	32 (≈ 48.1 µg/mL)	>64	>64
